# Columns and labels:
# [1] = target: T1, Corticotropin-releasing factor receptor 1 (Homo sapiens, UniProt P34998); assay: Inhibition of CRF-stimulated cAMP production in CHO cells expressing human CRF1 receptor
# T1 sequence (P34998 whole entry): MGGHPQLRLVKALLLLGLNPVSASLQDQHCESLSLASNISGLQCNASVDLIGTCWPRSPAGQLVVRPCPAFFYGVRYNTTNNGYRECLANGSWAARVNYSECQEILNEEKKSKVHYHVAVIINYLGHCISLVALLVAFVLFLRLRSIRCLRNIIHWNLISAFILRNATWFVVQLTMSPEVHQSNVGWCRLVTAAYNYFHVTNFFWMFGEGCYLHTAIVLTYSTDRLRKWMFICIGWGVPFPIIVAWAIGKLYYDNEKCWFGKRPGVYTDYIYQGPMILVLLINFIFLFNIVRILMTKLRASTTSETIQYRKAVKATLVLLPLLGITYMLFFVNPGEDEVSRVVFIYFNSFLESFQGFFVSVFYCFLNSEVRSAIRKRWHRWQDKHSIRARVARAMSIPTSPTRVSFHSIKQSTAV
# [2] = target: T1, Corticotropin-releasing factor receptor 1; assay: Inhibition of [125I]o-CRF binding to CHO cells expressing human CRF1 receptor; format: cell-based
# [3] = Plasma volume distribution determined in dawley rats; format: ADME, organism-based; conditions: Sprague-Dawley, rat
# [4] = Plasma clearance determined in dawley rats; format: ADME, organism-based; conditions: Sprague-Dawley, rat
# [5] = Plasma half-life determined in dawley rats; format: ADME; conditions: Sprague-Dawley, rat
Ki [2] [nM],SMILES,also measured
–,CCCN(CCOC)c1cc(C)nc2c(-c3ccc(OC)cc3OC)c(C)nn12,IC50 [1]: 76 nM
2.6,CCCCN(CC)c1cc(C)nc2c(-c3cnc(N(C)C)cc3C)c(C)nn12,–
260,CCC(COC)Nc1cc(C)nc2c(-c3cnc(N(C)C)cc3C)c(C)nn12 (stereo not given),–
39,CCCN(CCC)c1c(Cl)c(C)nc2c(-c3cnc(N(C)C)cc3C)c(C)nn12,–
8.8,CCCN(c1ccccc1)c1cc(C)nc2c(-c3cnc(N(C)C)cc3C)c(C)nn12,–
–,CCCN(CCC)c1cc(C)nc2c(-c3ncc(N(C)C)cc3C)c(C)nn12,IC50 [1]: 160 nM
2.4,CCN(Cc1cccc(C)c1)c1cc(C)nc2c(-c3cnc(N(C)C)cc3C)c(C)nn12,–
2.5,CCN(Cc1ccc(Cl)c(Cl)c1)c1cc(C)nc2c(-c3cnc(N(C)C)cc3C)c(C)nn12,–
2.3,CCN(Cc1ccc(C)cc1)c1cc(C)nc2c(-c3cnc(N(C)C)cc3C)c(C)nn12,–
3.4,CCN(Cc1ccccc1F)c1cc(C)nc2c(-c3cnc(N(C)C)cc3C)c(C)nn12,–
9.4,CCC(CC)Nc1cc(C)nc2c(-c3cnc(N(C)C)cc3C)c(C)nn12,–
5.2,CCCN(CCC)c1cc(C)nc2c(-c3c(C)cc(N(C)C)nc3C)c(C)nn12,IC50 [1]: 40 nM
2.9,CCCCN(Cc1ccccc1)c1cc(C)nc2c(-c3cnc(N(C)C)cc3C)c(C)nn12,–
4.8,CCCC(CCC)Nc1cc(C)nc2c(-c3cnc(N(C)C)cc3C)c(C)nn12,–
4.2,CCCN(CCC)c1cc(C)nc2c(-c3ccc(N(C)C)nc3)c(C)nn12,IC50 [1]: 110 nM
13,Cc1cc(NC(C)CCC(C)C)n2nc(C)c(-c3cnc(N(C)C)cc3C)c2n1 (stereo not given),–
2.6,CCCN(CC1CC1)c1cc(C)nc2c(-c3cnc(N(C)C)cc3C)c(C)nn12,–

Ki [2] [nM],SMILES,also measured
–,CCCN(CCC)c1cc(C)nc2c(-c3cnc(N(C)C)cc3C)c(C)nn12,Vd [3]: 16.7 L/kg; clearance [4]: 112 mL/min/kg; half-life [5]: 1.7 h
7.3,CCCN(CCC)c1cc(C)nc2c(-c3cnc(C)cc3C)c(C)nn12,–
4.2,CCCCN(CCCC)c1cc(C)nc2c(-c3cnc(N(C)C)cc3C)c(C)nn12,–
2.4,CCN(Cc1ccccc1C)c1cc(C)nc2c(-c3cnc(N(C)C)cc3C)c(C)nn12,–
6.5,COCC(Cc1ccccc1)Nc1cc(C)nc2c(-c3cnc(N(C)C)cc3C)c(C)nn12 (stereo not given),–
21,CCCN(CCC)c1cc(C)nc2c(-c3ccc(C)nc3)c(C)nn12,–
15,CCCN(Cc1ccc2ccccc2c1)c1cc(C)nc2c(-c3cnc(N(C)C)cc3C)c(C)nn12,–
240,CCCN(CCC)c1c(Br)c(C)nc2c(-c3cnc(N(C)C)cc3C)c(C)nn12,–
24,CCCN(Cc1cccc(OC)c1)c1cc(C)nc2c(-c3cnc(N(C)C)cc3C)c(C)nn12,–
1.3,CCN(Cc1ccc(Cl)cc1)c1cc(C)nc2c(-c3cnc(N(C)C)cc3C)c(C)nn12,–
5.2,CCCN(Cc1ccccc1)c1cc(C)nc2c(-c3cnc(N(C)C)cc3C)c(C)nn12,–
11,Cc1cc(N(Cc2ccccc2)C(C)C)n2nc(C)c(-c3cnc(N(C)C)cc3C)c2n1,–
2.2,CCCN(CCC)c1cc(C)nc2c(-c3ccc(N(C)C)nc3C)c(C)nn12,IC50 [1]: 190 nM
17,Cc1cc(NC(C)C(C)C)n2nc(C)c(-c3cnc(N(C)C)cc3C)c2n1 (stereo not given),–
5.6,CCCN(CCC)c1c(F)c(C)nc2c(-c3cnc(N(C)C)cc3C)c(C)nn12,IC50 [1]: 50 nM
1.6,CCCN(CC1CC1)c1cc(C)nc2c(-c3ccc(Cl)cc3Cl)c(C)nn12,IC50 [1]: 29 nM

# — ChEMBL document CHEMBL1138740, “Design of 2,5-dimethyl-3-(6-dimethyl-4-methylpyridin-3-yl)-7-dipropylaminopyrazolo[1,5-a]pyrimidine (NBI 30775/R121919) and structure--activity relationships of a series of potent and orally active corticotropin-releasing factor receptor antagonists” (J Med Chem, 2004)
